Values after ≈ are worked out from the molar mass of the structure shown.
Key:
[1] = system: SK-OV3; assay: Inhibition of cells growth by colorimetric assay (SRB), SK-OV3; assay type: cell-based
Summary of the method: (§1)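 Absorbance at 490 nm of sulphorhodamine B bound by TCA-fixed cells gives the growth readout after 48 h continuous exposure to test samples (10 to 10^−8 μg/ml). Cells were seeded at 5×10^3 per well in RPMI 1640/10% FBS and allowed 18 h to attach first.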

[2] = biological target: CYP3A4 (Homo sapiens, UniProt P08684); assay: in vitro; conditions: CYP3A4 (% inhibition)
Chain of CYP3A4 (P08684 whole entry): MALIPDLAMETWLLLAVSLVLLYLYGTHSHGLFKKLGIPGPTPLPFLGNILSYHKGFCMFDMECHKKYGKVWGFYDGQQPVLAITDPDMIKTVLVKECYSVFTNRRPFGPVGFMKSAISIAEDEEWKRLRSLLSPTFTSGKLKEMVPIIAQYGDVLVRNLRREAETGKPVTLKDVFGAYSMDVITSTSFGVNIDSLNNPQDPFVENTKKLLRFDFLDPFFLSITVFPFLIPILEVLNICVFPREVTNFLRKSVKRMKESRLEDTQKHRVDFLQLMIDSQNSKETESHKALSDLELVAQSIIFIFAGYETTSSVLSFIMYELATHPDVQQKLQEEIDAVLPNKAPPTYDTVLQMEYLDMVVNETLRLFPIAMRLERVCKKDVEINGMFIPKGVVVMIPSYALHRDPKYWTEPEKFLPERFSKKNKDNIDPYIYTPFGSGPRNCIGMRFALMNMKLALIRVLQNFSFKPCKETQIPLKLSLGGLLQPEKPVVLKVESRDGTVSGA

[3] = s9, 60 min, 1 μM
[4] = physchem; conditions: pH 7.4, log D n-Octanol-Dulbecco's PBS pH 7.4
Procedure: The measurement of partition coefficient was evaluated based on a miniaturized shake-flask procedure. Buffer (Dulbecco's PBS, pH 7.40) was used as the aqueous phase. The tested compound was dissolved in DMSO, at the concentration of 100 μM. The final DMSO concentration (1%.) during the octanol-buffer partitioning are very low to avoid bias on the partitioning. The amount of compound in the buffer phase was determined by HPLC with photodiode array detection after an equilibration phase of 60 min. The amount of compound in the octanol phase is calculated by subtraction of the amount of compound in buffer from the total amount of compound, which is determined from a calibration sample.
Log D is calculated as the Log10 of the amount of compound in the octanol phase divided by the amount of compound in the buffer phase. The effective range of the log D microassay is approximately −0.5 to +4.5.

[5] = system: IGROV-ET; assay: cells; assay type: cell-based; conditions: Homo sapiens, 48 h
Summary of the method: as §1

[6] = system: A549; assay: cells; assay type: cell-based; conditions: Homo sapiens, A549, 48 h
Summary of the method: as §1

[7] = system: HT29; assay: cells; assay type: cell-based; conditions: Homo sapiens, HT-29, 48 h
Summary of the method: as §1

[8] = system: LNCAP; assay: cells; assay type: cell-based; conditions: Homo sapiens, LNCaP, 48 h
Summary of the method: as §1

[9] = system: SK-BR3; assay: cells; assay type: cell-based; conditions: Homo sapiens, SK-BR-3, 48 h
Summary of the method: as §1

[10] = system: LOVO-DOX; assay: cells; assay type: cell-based; conditions: Homo sapiens, 48 h
Summary of the method: as §1

[11] = system: IGROV; assay: cells; assay type: cell-based; conditions: Homo sapiens, 48 h
Summary of the method: as §1

[12] = system: K562; assay: cells; assay type: cell-based; conditions: Homo sapiens, K562, 48 h
Summary of the method: as §1

[13] = system: DU145; assay: cells; assay type: cell-based; conditions: Homo sapiens, DU-145, 48 h
Summary of the method: as §1

[14] = system: MEL-28; assay: cells; assay type: cell-based; conditions: Homo sapiens, SK-MEL-28, 48 h
Summary of the method: as §1

[15] = system: LOVO; assay: cells; assay type: cell-based; conditions: Homo sapiens, LoVo, 48 h
Summary of the method: as §1

[16] = system: PANC-1; assay: cells; assay type: cell-based; conditions: Homo sapiens, PANC-1, 48 h
Summary of the method: as §1

[17] = system: H-MEC-1; assay: Inhibition of cells growth by colorimetric assay (SRB), H-MEC-1; assay type: cell-based; conditions: Homo sapiens, HMEC-1, 48 h
Summary of the method: as §1

[18] = system: H9c2 (2-1), normal rat cardiac muscle cells; conditions: 24 h
[19] = physchem; conditions: pH 7.4, aqueous buffer, Solubility Dulbecco's PBS pH 7.4
[20] = system: AML-12, normal mouse liver cells; conditions: 24 h
[21] = system: L8, normal rat skeletal muscle cells; conditions: 24 h
[22] = system: FDC-P1, normal mouse myelogeous stem cells; conditions: 24 h
[23] = IGROV-ET, 48 hours exposure, SRB
[24] = LOVO-DOX, 48 hours exposure, SRB
[25] = H-MEC-1, 48 hours exposure, SRB

In the case of `COc1c(C)cc2c(c1O)[C@@H]1C3[C@@H]4SC[C@]5(NCCc6c5[nH]c5c(C)cccc65)C(=O)COC[C@@H](c5c6c(c(C)c(OC(C)=O)c54)OCO6)N3[C@@H](O)[C@H](C2)N1C` (some centres unmarked) [Compound 36], the GI50 ([1]; Homo sapiens, SK-OV-3, 48 h, SK-OV3, 48 hours exposure, SRB) is reported as 50.7 nM, the CC50 ([1]; Homo sapiens, SK-OV-3, 48 h, read-out: LC50, SK-OV3, 48 hours exposure, SRB) is reported as 13 µM and the TGI ([1]; SK-OV3, 48 hours exposure, SRB) is reported as 2.05E−07 Molar. For the same molecule, the inhibition at 30 min, 10 µM [2] was 78%, the “Human Liver S9 Metabolic Stability (% remaining)” value [3] was 2 % remaining and the logD at 60 min [4] was over 4.4. For the same molecule, the GI50 [5, 23] was 50.3 nM, the IC (TGI) [5, 23] was 0.103 µM and the CC50 ([5]; read-out: LC50, IGROV-ET, 48 hours exposure, SRB) was 130 nM. The GI50 ([6]; A549, 48 hours exposure, SRB, read-out: GI50) was 28.4 nM, the IC (TGI) ([6]; A549, 48 hours exposure, SRB, read-out: TGI) was 0.0507 µM and the CC50 ([6]; read-out: LC50, A549, 48 hours exposure, SRB) was 90.9 nM. The GI50 ([7]; HT29, 48 hours exposure, SRB) was 61.8 nM, the IC (TGI) ([7]; HT29, 48 hours exposure, SRB) was 0.187 µM and the CC50 ([7]; read-out: LC50, HT29, 48 hours exposure, SRB) was 13 µM. The GI50 ([8]; 48 hours exposure, SRB) was 6.14 nM, the IC (TGI) ([8]; 48 hours exposure, SRB) was 9.48 nM and the CC50 ([8]; read-out: LC50, LNCAP, 48 hours exposure, SRB) was 25.1 nM. It also gave a GI50 ([9]; SK-BR3, 48 hours exposure, SRB) of 11.8 nM, an IC (TGI) ([9]; SK-BR3, 48 hours exposure, SRB) of 0.032 µM and a CC50 ([9]; read-out: LC50, SK-BR3, 48 hours exposure, SRB) of 86.4 nM. For the same molecule, the GI50 [10, 24] was 70.4 nM, the IC (TGI) [10, 24] was 0.977 µM and the CC50 ([10]; read-out: LC50, LOVO-DOX, 48 hours exposure, SRB) was 13 µM. The GI50 ([11]; 48 hours exposure, SRB) was 3.72 nM, the IC (TGI) ([11]; 48 hours exposure, SRB) was 7.21 nM and the CC50 ([11]; read-out: LC50, IGROV, 48 hours exposure, SRB) was 27.1 nM. The GI50 ([12]; K562, 48 hours exposure, SRB) was 6.15 nM, the IC (TGI) ([12]; K562, 48 hours exposure, SRB) was 9.92 nM and the CC50 ([12]; read-out: LC50, K562, 48 hours exposure, SRB) was 109 nM. The GI50 ([13]; DU145, 48 hours exposure, SRB) was 5.41 nM, the IC (TGI) ([13]; DU145, 48 hours exposure, SRB) was 9.39 nM and the CC50 ([13]; read-out: LC50, DU145, 48 hours exposure, SRB) was 13 µM. The GI50 ([14]; MEL-28, 48 hours exposure, SRB) was 2.16 nM, the IC (TGI) ([14]; MEL-28, 48 hours exposure, SRB) was 5.23 nM and the CC50 ([14]; read-out: LC50, MEL-28, 48 hours exposure, SRB) was 12.6 nM. The GI50 ([15]; 48 hours exposure, SRB) was 27.3 nM, the IC (TGI) ([15]; 48 hours exposure, SRB) was 0.0546 µM and the CC50 ([15]; read-out: LC50, LOVO, 48 hours exposure, SRB) was 109 nM. For the same molecule, the GI50 ([16]; PANC-1, 48 hours exposure, SRB) was 42.1 nM, the IC (TGI) ([16]; PANC-1, 48 hours exposure, SRB) was 0.104 µM and the CC50 ([16]; read-out: LC50, PANC-1, 48 hours exposure, SRB) was 13 µM. The GI50 [17, 25] was 84.3 nM, the IC (TGI) [17, 25] was 0.783 µM and the CC50 ([17]; read-out: LC50, H-MEC-1, 48 hours exposure, SRB) was 13 µM. For the same molecule, the Heart [18] was 8.86E−07, the solubility [19] was 26 µM (≈ 20.4 µg/mL) and the Liver [20] was 3.19E−07. For the same molecule, the Skeletal [21] was 2.71E−08 and the Myelo [22] was 2.05E−07.

Reference: patent US7763615B2, “Ecteinascidin analogs for use as antitumour agents” (priority 2001, dated 2010)
